Reference: patent US9931351B2, “Method for improving leptin resistance” (Kyoto University, priority 2013, dated 2018)

What was measured:
Type in all cases: in vivo
[1] = system: leptin-deficient Lepmkyo/Lepmkyo rats; assay: Test Example 6: effects to improve metabolism in leptin-deficient Lepmkyo/Lepmkyo rats; details: standard diet, 20 mg/kg/day intraperitoneal once a day, four weeks; for body weight: versus vehicle
Description: Lepmkyo/Lepmkyo rats cannot produce leptin due to a mutation in the leptin gene (Aizawa-Abe et al. Physiol Genomics 45: 786-793, 2013, prepared in Institute of Laboratory Animals, Graduate School of Medicine, Kyoto University). Eight-week old male Lepmkyo/Lepmkyo rats were divided into three treatment groups: “Vehicle (V)”, “Compound 57”, and “Compound 32”. The rats were kept for four weeks with ad libitum feeding of standard diet, and the body weight of the rats were measured. The vehicle, Compound 57, and Compound 32 were administered to the rats by intraperitoneal injection once a day. The each dosage of Compounds 57 and 32 was 20 mg/kg/day. After the four weeks the rats were sacrificed, blood was collected, and the plasma levels of glucose and insulin were measured (n =5 for each group).

[2] = system: wild type rats having diet-induced obesity; assay: Test Example 8: effects to improve metabolism in rats having diet-induced obesity caused by a high fat diet; details: wild type rats obese after four-week high fat diet, continued high fat diet, 20 mg/kg/day intraperitoneal once a day, further four weeks; for weight of the adipose tissues: epididymal
Description: Eight-week old male wild type rats were divided into two groups (n =5 and 15) and kept for four weeks under a standard diet (SD) or a high fat diet (HFD) condition. All the rats fed with the standard diet for the four weeks were assigned to the group “vehicle (V)” and fed with the standard diet for further four weeks, and then the body weight of the rats was measured. The rats fed with the high fat diet for the four weeks were divided into three groups: “vehicle”, “Compound 57”, and “Compound 32”, and fed with the high fat diet for further four weeks, and then the body weight of the rats was measured. The vehicle, Compound 57, and Compound 32 were administered to the rats by intraperitoneal injection once a day. The each dosage of Compounds 57 and 32 was 20 mg/kg/day. Finally the rats were sacrificed, blood, epididymal adipose tissues, and the liver were collected, and the weight of the adipose tissues, the liver weight, and the plasma levels of glucose, insulin, total cholesterol, triglyceride, and nonesterified fatty acid were measured (n =5 for each group).

[3] = system: transgenic mice overexpressing leptin (LepTg) under the high fat diet condition; assay: Test Example 1: effects to improve metabolism in transgenic mice overexpressing leptin under a high fat diet condition; details: 60% high fat diet, 50 mg/kg/day intraperitoneal once a day, four weeks; for weight of the adipose tissues: epididymal
Description: Eight-week old male wild type mice and transgenic mice overexpressing leptin (LepTg) (Ogawa et al. Diabetes 48: 1822-1829, 1999, prepared in Department of Endocrinology and Metabolism, Kyoto University) were divided into three treatment groups, respectively: “standard diet (SD)+vehicle (V)”, “60% high fat diet (HFD)+vehicle”, and “60% high fat diet+Compound 57”. The mice were kept for four weeks with ad libitum feeding, and the body weight and the food intake of the mice were measured. The vehicle and Compound 57 were administered to the mice by intraperitoneal injection once a day. The dosage of Compound 57 was 50 mg/kg/day. After the four weeks the mice were sacrificed and blood, epididymal adipose tissues, and the liver were collected. The weight of the adipose tissues, the liver weight, the liver triglyceride levels, and the plasma levels of glucose, insulin, total cholesterol (T-chol), triglyceride (TG), and nonesterified fatty acid (NEFA) were measured (n=5 for each group). The equivalent dosage of Compound 32 was tested in a similar manner (n=5 for each group).

[4] = system: transgenic mice overexpressing leptin (LepTg) having diet-induced obesity; assay: Test Example 4: effects to improve metabolism in LepTg mice having diet-induced obesity caused by a high fat diet; details: LepTg mice obese after four-week high fat diet, continued high fat diet, 50 mg/kg/day intraperitoneal once a day, further four weeks; for weight of the adipose tissues: epididymal
Description: Eight-week old male wild type mice and transgenic mice overexpressing leptin (LepTg) (see Test Example 1) were divided into two groups, respectively (n=4 and 12), and kept for four weeks under a standard diet (SD) or a high fat diet (HFD) condition. All the mice fed with the standard diet for the four weeks were assigned to the group “vehicle (V)” and fed with the standard diet for further four weeks, and then the body weight and the food intake of the mice were measured. The mice fed with the high fat diet for the four weeks were divided into three groups: “vehicle (V)”, “Compound 57”, and “Compound 32”, and fed with the high fat diet for further four weeks, and then the body weight and the food intake of the mice were measured. The vehicle, Compound 57, and Compound 32 were administered to the mice by intraperitoneal injection once a day. The each dosage of Compounds 57 and 32 was 50 mg/kg/day. Finally the mice were sacrificed and blood, epididymal adipose tissues, and the liver were collected. The weight of the adipose tissues, the liver weight, and the plasma levels of glucose and triglyceride were measured (n=4 for each group).

Seipin KO rats = assay: Test Example 7: effects to improve metabolism in Seipin KO rats, a model of generalized lipodystrophy; details: standard diet, 20 mg/kg/day intraperitoneal once a day, four weeks
Description: Seipin KO rats have a mutation in the Seipin gene, the causative gene of human generalized lipodystrophy, and are used as a model of generalized lipodystrophy. The rats have substantially no white adipocyte and thus cannot produce leptin. The rats were prepared in Department of Endocrinology and Metabolism, Kyoto University. Eight-week old male Seipin KO rats were divided into three treatment groups: “Vehicle (V)”, “Compound 57”, and “Compound 32”. The rats were kept for four weeks with ad libitum feeding of standard diet, and the body weight of the rats were measured. The vehicle, Compound 57, and Compound 32 were administered to the rats by intraperitoneal injection once a day. The each dosage of Compounds 57 and 32 was 20 mg/kg/day. After the four weeks the rats were sacrificed, blood was collected, and the plasma levels of glucose and insulin were measured (n=3 for each group).

[5] = system: wild type rats under the high fat diet condition; assay: Test Example 5: effects to improve metabolism in wild type rats under a high fat diet condition; details: 60% high fat diet, 20 mg/kg/day intraperitoneal once a day, four weeks
Description: Eight-week old male wild type rats were divided into four treatment groups: “standard diet (SD)+vehicle (V)”, “60% high fat diet (HFD)+vehicle”, “60% high fat diet+Compound 57”, and “60% high fat diet+Compound 32”. The rats were kept for four weeks with ad libitum feeding, and the body weight of the rats was measured. The vehicle, Compound 32 and Compound 57 were administered to the rats by intraperitoneal injection once a day. The each dosage of Compounds 32 and 57 was 20 mg/kg/day. After the four weeks the rats were sacrificed, blood was collected, and the plasma levels of glucose and insulin were measured (n=5 for each group).

Structure (SMILES)	plasma insulin [1]	random plasma glucose levels [1]	body weight [1]	body weight [2]	plasma level of glucose [2]	plasma level of insulin [2]	plasma level of nonesterified fatty acid [2]	plasma level of total cholesterol [2]	plasma level of triglyceride [2]	weight of the adipose tissues [2]	body weight [3]	food intake [3]	liver triglyceride levels [3]	liver weight [3]	plasma insulin levels [3]	plasma level of nonesterified fatty acid [3]	plasma level of total cholesterol [3]	plasma level of triglyceride [3]	random plasma glucose levels [3]	weight of the adipose tissues [3]	other results
Cc1cc(F)ccc1-c1ccc(/N=N/c2cc(S(=O)(=O)[O-])c3ccccc3c2N)cn1.[Na+] [Compound 32, 4-amino-3-[6-(4-fluoro-2-methylphenyl)pyridine-3-ylazo]naphthalene-1-sulfonic acid sodium salt]	did not change	did not change	No difference	decreased	decreased	decreased	decreased	decreased	decreased	decreased	did not increase	did not increase	did not increase	did not increase	did not increase	did not increase	did not increase	did not increase	did not increase	did not increase	blood level of glucose [4]: decreased; blood level of triglyceride [4]: decreased; body weight [4]: decreased; food intake [4]: significantly decreased; weight of the adipose tissues [4]: significantly decreased; body weight (Seipin KO rats): did not change; plasma insulin (Seipin KO rats): did not change; random plasma glucose levels (Seipin KO rats): did not change; plasma insulin levels [5]: did not increase; random plasma glucose levels [5]: did not increase; weight gain caused by the high fat diet [5]: not observed
Nc1c(/N=N/c2ccc(-c3cccc4c3sc3ccccc34)nc2)cc(S(=O)(=O)[O-])c2ccccc12.[Na+] [Compound 57, 4-amino-3-(6-dibenzothiophene-4-ylpyridine-3-ylazo)naphthalene-1-sulfonic acid sodium salt]	did not change	did not change	No difference	decreased	decreased	decreased	decreased	decreased	decreased	decreased	did not increase	did not increase	did not increase	did not increase	did not increase	did not increase	did not increase	did not increase	did not increase	did not increase	blood level of glucose [4]: decreased; blood level of triglyceride [4]: decreased; body weight [4]: decreased; food intake [4]: significantly decreased; liver weight [4]: decreased; weight of the adipose tissues [4]: significantly decreased; body weight (Seipin KO rats): did not change; plasma insulin (Seipin KO rats): did not change; random plasma glucose levels (Seipin KO rats): did not change; plasma insulin levels [5]: did not increase; random plasma glucose levels [5]: did not increase; weight gain caused by the high fat diet [5]: not observed
